# Assay results reported in patent US20140107151A1, “TYROSINE KINASE INHIBITORS” (Principal Biopharma Inc., priority 2011, published 2014).
# Target: human recombinant Btk (Homo sapiens, UniProt Q06187)
# Assay: Btk Enzymatic Activity Assay (Caliper-based kinase assay)
# Assay type: biochemical
# Conditions: human recombinant Btk 2 nM, ATP 40 μM, peptide substrate 1 μM, room temperature for 3 h
# Procedure: A Caliper-based kinase assay (Caliper Life Sciences, Hopkinton, Mass.) was used to measure inhibition of Btk kinase activity of a compound of Formula (I). […] The reaction was then terminated with EDTA, final concentration 20 mM and the phosphorylated reaction product was quantified on a Caliper Desktop Profiler (Caliper LabChip 3000).
# Sequence of human recombinant Btk (Q06187 whole entry): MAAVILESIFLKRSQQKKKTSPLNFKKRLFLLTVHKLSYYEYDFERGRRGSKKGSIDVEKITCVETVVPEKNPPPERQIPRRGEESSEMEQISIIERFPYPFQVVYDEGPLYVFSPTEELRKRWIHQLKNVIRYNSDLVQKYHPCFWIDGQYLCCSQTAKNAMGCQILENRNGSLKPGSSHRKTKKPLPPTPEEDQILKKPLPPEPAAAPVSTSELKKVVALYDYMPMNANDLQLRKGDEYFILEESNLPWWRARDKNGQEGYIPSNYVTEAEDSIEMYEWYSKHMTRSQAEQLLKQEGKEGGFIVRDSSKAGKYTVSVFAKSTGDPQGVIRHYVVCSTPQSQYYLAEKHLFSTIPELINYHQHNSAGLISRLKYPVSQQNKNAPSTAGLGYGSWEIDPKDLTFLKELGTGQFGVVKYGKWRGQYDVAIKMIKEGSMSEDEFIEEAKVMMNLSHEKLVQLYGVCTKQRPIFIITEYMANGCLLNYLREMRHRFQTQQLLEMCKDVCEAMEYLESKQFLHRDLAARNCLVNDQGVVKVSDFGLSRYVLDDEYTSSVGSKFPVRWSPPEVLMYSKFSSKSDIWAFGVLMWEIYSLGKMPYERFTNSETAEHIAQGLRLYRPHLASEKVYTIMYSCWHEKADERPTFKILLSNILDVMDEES
row,Structure (SMILES),IC50 [nM]
1,"N#CC(=CC1CC1)C(=O)N1CCC(c2cc3[nH]nc(N)c3c(-c3ccc(Oc4ccccc4)cc3)n2)CC1 [Example 8, 2-(4-(3-amino-4-(4-phenoxyphenyl)-1H-pyrazolo[4,3-c]pyridin-6-yl)piperidine-1-carbonyl)-3-cyclopropylacrylonitrile]",2
2,"N#CC(=CC1CC1)C(=O)N1CCCC1Cc1cc2[nH]nc(N)c2c(-c2ccc(Oc3ccccc3)cc2)n1 (centres unmarked) [Example 10, 2-(2-((3-amino-4-(4-phenoxyphenyl)-1H-pyrazolo[4,3-c]pyridin-6-yl)-methyl)pyrrolidine-1-carbonyl)-3-cyclopropylacrylonitrile]",2
3,"N#CC(=CC1CC1)C(=O)N1CCCC(c2cc3[nH]nc(N)c3c(-c3ccc(Oc4ccccc4)cc3)n2)C1 (centres unmarked) [Example 9, 2-(3-(3-amino-4-(4-phenoxyphenyl)-1H-pyrazolo[4,3-c]pyridin-6-yl)piperidine-1-carbonyl)-3-cyclopropylacrylonitrile]",1.1
4,"CC(C)C=C(C#N)C(=O)N1CCC(Cc2cc3[nH]nc(N)c3c(-c3ccc(Oc4ccccc4)cc3)n2)C1 (centres unmarked) [Example 10A, 2-(3-((3-amino-4-(4-phenoxyphenyl)-1H-pyrazolo[4,3-c]pyridin-6-yl)methyl)-pyrrolidine-1-carbonyl)-4-methylpent-2-enenitrile]",1.2

# The remaining lines, values ahead:
row,IC50 [nM],Structure (SMILES)
1,15.5,"CC(C)C=C(C#N)C(=O)N1CCC[C@H](c2cc3[nH]nc(N)c3c(-c3ccc(Oc4ccccc4)cc3)n2)C1 [Example 11A, (S)-2-(3-(3-amino-4-(4-phenoxyphenyl)-1H-pyrazolo[4,3-c]pyridin-6-yl)piperidine-1-carbonyl)-4-methylpent-2-enenitrile]"
2,9.3,"CC(C)C=C(C#N)C(=O)N1CCC[C@@H](c2cc3[nH]nc(N)c3c(-c3ccc(Oc4ccccc4)cc3)n2)C1 [Example 11, (R)-2-(3-(3-amino-4-(4-phenoxyphenyl)-1H-pyrazolo[4,3-c]pyridin-6-yl)piperidine-1-carbonyl)-4-methylpent-2-enenitrile]"
3,13,"CC(C)C=C(C#N)C(=O)N1CCC[C@H]1c1cc2[nH]nc(N)c2c(-c2ccc(Oc3ccccc3)cc2)n1 [Example 11B, (S)-2-(2-(3-amino-4-(4-phenoxyphenyl)-1H-pyrazolo[4,3-c]pyridin-6-yl)pyrrolidine-1-carbonyl)-4-methylpent-2-enenitrile]"
4,13.6,"CC(C)C=C(C#N)C(=O)N1CCC[C@@H]1c1cc2[nH]nc(N)c2c(-c2ccc(Oc3ccccc3)cc2)n1 [Example 11C, (R)-2-(2-(3-amino-4-(4-phenoxyphenyl)-1H-pyrazolo[4,3-c]pyridin-6-yl)pyrrolidine-1-carbonyl)-4-methylpent-2-enenitrile]"
